Measurements reported in paper PMC3758491 (Pesticide biochemistry and physiology, 2013).
Read-outs that look alike come from different tables or passages of the source.

Tests used:
murine AChE (mAChE) [1] = target: T1, murine AChE (mAChE) (Mus musculus, UniProt P21836); assay: biochemical; type: binding
T1 sequence (P21836 32-614): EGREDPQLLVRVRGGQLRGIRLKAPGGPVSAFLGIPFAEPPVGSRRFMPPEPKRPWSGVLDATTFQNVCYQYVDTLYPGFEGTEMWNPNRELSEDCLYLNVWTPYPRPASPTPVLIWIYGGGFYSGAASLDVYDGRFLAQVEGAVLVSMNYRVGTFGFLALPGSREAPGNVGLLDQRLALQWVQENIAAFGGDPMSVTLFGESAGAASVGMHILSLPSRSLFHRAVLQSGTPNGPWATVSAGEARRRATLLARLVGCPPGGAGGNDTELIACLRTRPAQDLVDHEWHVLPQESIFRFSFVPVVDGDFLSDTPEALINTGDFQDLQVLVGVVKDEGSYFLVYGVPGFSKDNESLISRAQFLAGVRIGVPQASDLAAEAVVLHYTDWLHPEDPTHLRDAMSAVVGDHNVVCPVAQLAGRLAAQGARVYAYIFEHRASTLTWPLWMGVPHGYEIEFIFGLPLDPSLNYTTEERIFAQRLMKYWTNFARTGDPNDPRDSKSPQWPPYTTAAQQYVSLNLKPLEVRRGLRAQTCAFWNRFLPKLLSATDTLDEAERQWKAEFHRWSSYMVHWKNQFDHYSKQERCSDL

murine AChE (mAChE) [2] = target: T1, murine AChE (mAChE); assay: biochemical
murine AChE (mAChE) [3] = target: T1, murine AChE (mAChE); assay: Equilibrium binding of TFT to mAChE
human recombinant AChE = settings: cited from earlier work
[4] = IC50 values (Mean ± SEM), Reduction of TFT Fluorescence
[5] = IC50 values (Mean ± SEM), Reduction of AChE activity
[6] = read-out: IC50 values (Mean ± SEM), Reduction of TFT Fluorescence, pH 7.4
[7] = read-out: IC50 values (Mean ± SEM), Reduction of AChE activity, pH 7.4

Compound	Ratio = IC50 TFT assay/IC50 Ellman assay (murine AChE (mAChE) [1])	IC50 (murine AChE (mAChE) [1]; [4]) [nM]	IC50 (murine AChE (mAChE) [2]; [5]) [nM]	also measured
COc1cc2c3cc1Oc1cc(ccc1O)C[C@@H]1c4c(cc(OC)c(O)c4Oc4ccc(cc4)C[C@@H]3N(C)CC2)CC[N+]1(C)C [Tubocurarine, d-tubocurarine]	0.7	50000	69000	IC50 (murine AChE (mAChE) [1]; IC50, TFT assay): 50000 to 70000 nM; IC50 (murine AChE (mAChE) [2]; IC50, Ellman assay): 50000 to 70000 nM
CC[N+](C)(CC)CCC[n+]1c(-c2ccccc2)c2cc(N)ccc2c2ccc(N)cc21 [Propidium Iodide, propidium iodide]	1.0	670	662	TFT fluorescence remaining after adding propidium iodide (murine AChE (mAChE) [1]): 0%; IC50 (murine AChE (mAChE) [1]; IC50, TFT assay): 700 nM; IC50 (murine AChE (mAChE) [2]; IC50, Ellman assay): 700 nM
Cc1ccc2c(c1)sc(-c1ccc(N(C)C)cc1)[n+]2C [TFT, thioflavin-T]				Kd (murine AChE (mAChE) [3]): 1400 ± 200 nM; increase of TFT fluorescence in the presence of mAChE over free solution (murine AChE (mAChE) [3]; 10 uM TFT): 1.96 fold; Bmax, maximum specific TFT fluorescence in the presence of mAChE (murine AChE (mAChE) [3]; mean ± SEM, n = 7): 562 ± 23 fluorescent units; Kd (human recombinant AChE; read-out: Kd of TFT, ref De Ferrari et al. [17]): 890 nM; Kd (human recombinant AChE; read-out: Kd of TFT, ref Sultatos and Kaushik [13]): 360 nM
CNC(=O)Oc1ccccc1OC(C)C [Propoxur, propoxur]	0.13	60	466	fold lower IC50 in TFT assay than in Ellman assay (murine AChE (mAChE) [1]): 7.7 fold
CNC(=O)O/N=C/C(C)(C)SC [Aldicarb, aldicarb]	0.9	565	645	
Cc1nc(N(C)C)nc(OC(=O)N(C)C)c1C [Pirimicarb, pirimicarb]	0.6	454	738	
CNC(=O)Oc1cccc2c1OC(C)(C)O2 [Bendiocarb, bendiocarb]	0.4	20	46	
CC[N+](C)(C)c1cccc(O)c1 [Edrophonium, edrophonium]	0.33	1120	3430	fold lower IC50 in TFT assay than in Ellman assay (murine AChE (mAChE) [1]): 3 fold; maximum percentage reduction of total TFT fluorescence (murine AChE (mAChE) [1]): around 30%
CC[n+]1c(-c2ccccc2)c2cc(N)ccc2c2ccc(N)cc21 [Ethidium Bromide, ethidium bromide]	4.1	16000	4000	TFT/Ellman IC50 ratio (murine AChE (mAChE) [1]): around four times higher
CNC(=O)Oc1cccc(C(C)(C)C)c1 [Compound 1, 3-tert-butylphenyl methylcarbamate]	0.4	25	62	
benzylpiperidine	0.95			maximum percentage reduction of total TFT fluorescence (murine AChE (mAChE) [1]): around 30%; IC50 (murine AChE (mAChE) [1]; [6]): 159000 nM; IC50 (murine AChE (mAChE) [1]; read-out: potency (IC50) for reducing thioflavin-T fluorescence): 159000 nM; IC50 (murine AChE (mAChE) [2]; [7]): 167000 nM
CCC(C)CSc1ccccc1OC(=O)NC (stereo not shown) [Compound 2, 2-(2-methylbutylthio)phenyl methylcarbamate]	0.9	8900	10300	
C=CC[N+](C)(C)c1ccc(CCC(=O)CCc2ccc([N+](C)(C)CC=C)cc2)cc1.[Br-].[Br-] [BW284C51, BW284c51]	1.9			IC50 (murine AChE (mAChE) [1]; [6]): 8.3 nM; IC50 (murine AChE (mAChE) [2]; [7]): 4.4 nM
